Results: patent publication US20020103377A1, “Piperidinyloxy and pyrrolidinyloxy oxazolidinone antibacterials” (priority 1999, published 2002)
In brackets after ≈: the same amount, converted by molar mass.

Assays:
S. aureus = test: MIC by microdilution broth method (NCCLS), S. aureus Broth; type: cell-based; conditions: Staphylococcus aureus, cation adjusted Mueller-Hinton broth, 35° C., 16-20 hours, read-out: MIC (μg/mL) S. aureus Broth
Experimental: (§1) Minimal inhibitory concentration (MIC) has been an indicator of in vitro antibacterial activity widely used in the art. The in vitro antimicrobial activity of the compounds was determined by the microdilution broth method following the test method from the National Committee for Laboratory Standards (NCCLS). This method is described in the NCCLS Document M7-A4, Vol. 17, No.2, “Methods for Dilution Antimicrobial Susceptibility Test for Bacteria that Grow Aerobically-Fourth Edition”, which is incorporated herein by reference.
(§2) In this method two-fold serial dilutions of drug in cation adjusted Mueller-Hinton broth are added to wells in microdilution trays. The test organisms are prepared by adjusting the turbidity of actively growing broth cultures so that the final concentration of test organism after it is added to the wells is approximately 5×10^4 CFU/well.
(§3) Following inoculation of the microdilution trays, the trays are incubated at 35° C. for 16-20 hours and then read. […] The amount of growth in the wells containing the test compound is compared with the amount of growth in the growth-control wells (no test compound) used in each tray. As set forth in Table 1, compounds of the present invention were tested against a variety of Gram positive and Gram negative pathogenic bacteria resulting in a range of activities, from 1 to ≧128 μg/mL depending on the organism tested.

E. faecium OC3312 = test: MIC by microdilution broth method (NCCLS), E. faecium OC3312; type: cell-based; conditions: Enterococcus faecium, OC3312, microdilution broth, cation adjusted Mueller-Hinton broth, 35° C., 16-20 hours; read-out: MIC (μg/mL) E. faecium OC3312
Experimental: as §1, §2, §3

MRSA OC 2878 = test: MIC by microdilution broth method (NCCLS), MRSA OC 2878; type: cell-based, Staphylococcus aureus; conditions: Staphylococcus aureus, MRSA, cation adjusted Mueller-Hinton broth, 35° C., 16-20 hours, read-out: MIC (μg/mL) MRSA OC 2878
Experimental: as §1, §2, §3

Row | Compound | MIC (S. aureus) [µg/mL] | MIC (E. faecium OC3312) [µg/mL] | MIC (MRSA OC 2878) [µg/mL] | melting point [°C]
1 | CC(=O)NC[C@H]1CN(c2ccc(OC3CCN(C(=O)N(C)C)CC3)c(F)c2)C(=O)O1 [Compound 24, (S)-N-[[3-[3-Fluoro-4-{N-(dimethylcarbamoyl)piperidinyl-4-oxy}phenyl]-2-oxo-5-oxazolidinyl]methyl]acetamide] | 8 (≈ 18.9 µM) | 32 (≈ 75.7 µM) | 16 (≈ 37.9 µM) | 129 to 131
2 | CC(=O)NC[C@H]1CN(c2ccc(OC3CCCN(C(=O)OC(C)(C)C)C3)c(F)c2)C(=O)O1 (stereo partly drawn) [Compound 34, (S)-N-[[3-[3-Fluoro-4-{N-(t-butoxycarbonyl)piperidinyl-3-oxy}phenyl]-2-oxo-5-oxazolidinyl]methyl]acetamide] | 128 (≈ 284 µM) | > 128 | 64 (≈ 142 µM) | 60 to 63
3 | CC(=O)NC[C@H]1CN(c2ccc(OC3CCN(C(=O)CO)C3)c(F)c2)C(=O)O1 (stereo partly drawn) [Compound 40, (S)-N-[[3-[3-Fluoro-4-{N-(α-hydroxyacetyl)pyrrolidinyl-3-oxy}phenyl]-2-oxo-5-oxazolidinyl]methyl]acetamide] | 4 (≈ 10.1 µM) | 16 (≈ 40.5 µM) | 8 (≈ 20.2 µM) | 97 to 99
4 | CC(=O)NC[C@H]1CN(c2ccc(OC3CCN(C(=O)OC(C)(C)C)CC3)nc2)C(=O)O1 [Compound 41, (5S)-3-[6-{N-(t-Butoxycarbonyl)piperidinyl-4-oxy}-pyridin-3-yl]-5-methylacetamide-oxazolidin-2-one] | 128 (≈ 295 µM) | > 128 | 64 (≈ 147 µM) | 99 to 101
5 | CC(=O)NC[C@H]1CN(c2ccc(OC3CCN(C(=O)c4ccccc4)CC3)nc2)C(=O)O1 [Compound 46, (5S)-3-[6-{N-(Benzoyl)piperidinyl-4-oxy}-pyridin-3-yl]-5-methylacetamide-oxazolidin-2-one] | 64 (≈ 146 µM) | > 128 | 64 (≈ 146 µM) | 180 to 182
6 | CC(=O)NC[C@H]1CN(c2ccc(OC3CCN(C(=O)COC(C)=O)CC3)c(F)c2)C(=O)O1 [Compound 53, (S)-N-[[3-[3-Fluoro-4-{N-(acetoxyacetyl)piperidinyl-4-oxy}phenyl]-2-oxo-5-oxazolidinyl]methyl]acetamide] | 8 (≈ 17.7 µM) | 16 (≈ 35.4 µM) | 8 (≈ 17.7 µM) | 146 to 147.5
7 | CC(=O)NC[C@H]1CN(c2ccc(OC3CN(C(=O)COCc4ccccc4)C3)c(F)c2)C(=O)O1 [Compound 58, (S)-N-[[3-[3-Fluoro-4-{N-(benzyloxyacetyl)azetidinyl-3-oxy}phenyl]-2-oxo-5-oxazolidinyl]methyl]acetamide] | 8 (≈ 17 µM) | 4 (≈ 8.48 µM) | 4 (≈ 8.48 µM) | 119 to 121
8 | CC(=O)NC[C@H]1CN(c2ccc(OC3CN(C(=O)COC(C)=O)C3)c(F)c2)C(=O)O1 [Compound 59, (S)-N-[[3-[3-Fluoro-4-{N-(acetoxyacetyl)azetidinyl-3-oxy}phenyl]-2-oxo-5-oxazolidinyl]methyl]acetamide] | 4 (≈ 9.45 µM) | 16 (≈ 37.8 µM) | 8 (≈ 18.9 µM) | 172 to 175

The remaining lines, values ahead:

Row | MIC (S. aureus) [µg/mL] | MIC (E. faecium OC3312) [µg/mL] | MIC (MRSA OC 2878) [µg/mL] | melting point [°C] | Compound
9 | 16 (≈ 35.1 µM) | 32 (≈ 70.1 µM) | 32 (≈ 70.1 µM) | 49 to 53 | CC(=O)NC[C@H]1CN(c2ccc(OC3CCN(C(=O)c4cccnc4)CC3)c(F)c2)C(=O)O1 [Compound 19, (S)-N-[[3-[3-Fluoro-4-{N-(3-pyridoyl)piperidinyl-4-oxy}phenyl]-2-oxo-5-oxazolidinyl]methyl]acetamide]
10 | 8 (≈ 17.5 µM) | 16 (≈ 35.1 µM) | 8 (≈ 17.5 µM) | 55 to 58 | CC(=O)NC[C@H]1CN(c2ccc(OC3CCN(C(=O)c4ccccn4)CC3)c(F)c2)C(=O)O1 [Compound 20, (S)-N-[[3-[3-Fluoro-4-{N-(2-pyridoyl)piperidinyl-4-oxy}phenyl]-2-oxo-5-oxazolidinyl]methyl]acetamide]
11 | 8 (≈ 17.3 µM) | 8 (≈ 17.3 µM) | 4 (≈ 8.67 µM) | 48 to 51 | CC(=O)NC[C@H]1CN(c2ccc(OC3CCN(C(=O)c4cccs4)CC3)c(F)c2)C(=O)O1 [Compound 22, (S)-N-[[3-[3-Fluoro-4-{N-(2-thienylcarbonyl)piperidinyl-4-oxy}phenyl]-2-oxo-5-oxazolidinyl]methyl]acetamide]
12 | 16 (≈ 34.9 µM) | 16 (≈ 34.9 µM) | 4 (≈ 8.72 µM) | 132 to 134 | CC(=O)NC[C@H]1CN(c2ccc(OC3CCN(S(=O)(=O)N(C)C)CC3)c(F)c2)C(=O)O1 [Compound 23, (S)-N-[[3-[3-Fluoro-4-{N-(dimethylsulfamoyl)piperidinyl-4-oxy}phenyl]-2-oxo-5-oxazolidinyl]methyl]acetamide]
13 | 32 (≈ 68.9 µM) | 64 (≈ 138 µM) | 32 (≈ 68.9 µM) | 167 to 170 | CC(=O)NC[C@H]1CN(c2ccc(OC3CCN(C(=O)N4CCOCC4)CC3)c(F)c2)C(=O)O1 [Compound 25, (S)-N-[[3-[3-Fluoro-4-{N-(4-morpholinocarbamoyl)piperidinyl-4-oxy}phenyl]-2-oxo-5-oxazolidinyl]methyl]acetamide]
14 | 16 (≈ 32.1 µM) | 16 (≈ 32.1 µM) | 8 (≈ 16 µM) | 42 to 45 | CC(=O)NC[C@H]1CN(c2ccc(OC3CCN(C(=O)CCCc4cccnc4)CC3)c(F)c2)C(=O)O1 [Compound 26, (S)-N-[[3-[3-Fluoro-4-{N-(4-pyridin-3-yl-butyryl)piperidinyl-4-oxy}phenyl]-2-oxo-5-oxazolidinyl]methyl]acetamide]
15 | 16 (≈ 33 µM) | 16 (≈ 33 µM) | 16 (≈ 33 µM) | 45 to 47 | CC(=O)NC[C@H]1CN(c2ccc(OC3CCN(C(=O)CCc4cccnc4)CC3)c(F)c2)C(=O)O1 [Compound 27, (S)-N-[[3-[3-Fluoro-4-{N-(3-pyridin-3-yl-propionyl)piperidinyl-4-oxy}phenyl]-2-oxo-5-oxazolidinyl]methyl]acetamide]
16 | 16 (≈ 37.3 µM) | 32 (≈ 74.5 µM) | 8 (≈ 18.6 µM) | 130 to 131 | CC(=O)NC[C@H]1CN(c2ccc(OC3CCCN(c4ncccn4)C3)c(F)c2)C(=O)O1 (stereo partly drawn) [Compound 38, (S)-N-[[3-[3-Fluoro-4-{N-(2-pyrimidinyl)piperidinyl-3-oxy}phenyl]-2-oxo-5-oxazolidinyl]methyl]acetamide]
17 | 16 (≈ 33 µM) | 16 (≈ 33 µM) | 16 (≈ 33 µM) | 53 to 55 | CC(=O)NC[C@H]1CN(c2ccc(OC3CCN(C(=O)COCc4ccccc4)C3)c(F)c2)C(=O)O1 (stereo partly drawn) [Compound 39, (S)-N-[[3-[3-Fluoro-4-{N-(benzyloxyacetyl)pyrrolidinyl-3-oxy}phenyl]-2-oxo-5-oxazolidinyl]methyl]acetamide]
18 | 32 (≈ 77.6 µM) | 128 (≈ 310 µM) | 64 (≈ 155 µM) | 175 to 176 | CC(=O)NC[C@H]1CN(c2ccc(OC3CCN(S(C)(=O)=O)CC3)nc2)C(=O)O1 [Compound 44, (5S)-3-[6-{N-(Methanesulfonyl)piperidinyl-4-oxy}-pyridin-3-yl]-5-methylacetamide-oxazolidin-2-one]
19 | 16 (≈ 35.9 µM) | 8 (≈ 18 µM) | 8 (≈ 18 µM) | 134 to 136 | CC(=O)NC[C@H]1CN(c2ccc(OC3CCN(C(=O)c4ccco4)CC3)c(F)c2)C(=O)O1 [Compound 51, (S)-N-[[3-[3-Fluoro-4-{N-(2-furoyl)piperdinyl-4-oxy}phenyl]-2-oxo-5-oxazolidinyl]methyl]acetamide]
20 | 32 (≈ 83.9 µM) | 128 (≈ 336 µM) | 64 (≈ 168 µM) | 158 to 160 | CC(=O)NC[C@H]1CN(c2ccc(OC3CN(C(=O)CO)C3)c(F)c2)C(=O)O1 [Compound 61, (S)-N-[[3-[3-Fluoro-4-{N-(α-hydroxyacetyl)azetidinyl-3-oxy}phenyl]-2-oxo-5-oxazolidinyl]methyl]acetamide]
